The results in this text go back to patent publication US8148422B2, “Sulfonamides as TRPM8 modulators” (Janssen Pharmaceutica, NV, priority 2008, dated 2012).

In this test the target is T1, canine TRPM8 (Canis lupus familiaris, UniProt Q1A7N1).
T1 construct: expressed in transfected cells
Description: In vitro canine TRPM8 functional assay (Ca2+-sensitive fluorescent dye, FLIPR or FDSS, icilin challenge). Type of test: cell-based. The settings on record: HEK293 cells stably expressing canine TRPM8; for inhibition at 0.2 µM: 0.2 μM compound, icilin challenge; for IC50: icilin at approx. 80% maximal response, eight-point dose-response, single determinations unless otherwise noted, read-out: IC50. Here is the method: The functional activity of compounds of the formula (I) was determined by measuring changes in intracellular calcium concentration using a Ca^2+-sensitive fluorescent dye. The changes in fluorescent signal were monitored by a fluorescence plate reader, either a FLIPR™ (Molecular Devices) or FDSS (Hamamatsu).
At 24 hrs prior to assay, HEK293 cells stably expressing canine TRPM8 were seeded in culture medium in black wall, clear-base poly-D-lysine coated 384-well plates (BD Biosciences, NJ, USA) and grown overnight in 5% CO2 at 37° C. On assay day, growth media was removed and cells were loaded with Calcium 3 Dye (Molecular Devices) for 35 min at 37° C., under 5% CO2 and then for 25 min at room temperature and atmosphere. Subsequently, cells were tested for agonist-induced increases in intracellular Ca^2+ levels using FLIPR™ or FDSS. Cells were challenged with a compound of the Formula (I) (at varying concentrations) and intracellular Ca^2+ was measured for 5 min prior to the addition of icilin to all wells to achieve a final concentration that produces approximately an 80% maximal response. EC50 or IC50 values for compounds of the present invention were determined from eight-point dose-response studies. Curves were generated using the average of quadruplicate wells for each data point.

T1 sequence (Q1A7N1 1-1104): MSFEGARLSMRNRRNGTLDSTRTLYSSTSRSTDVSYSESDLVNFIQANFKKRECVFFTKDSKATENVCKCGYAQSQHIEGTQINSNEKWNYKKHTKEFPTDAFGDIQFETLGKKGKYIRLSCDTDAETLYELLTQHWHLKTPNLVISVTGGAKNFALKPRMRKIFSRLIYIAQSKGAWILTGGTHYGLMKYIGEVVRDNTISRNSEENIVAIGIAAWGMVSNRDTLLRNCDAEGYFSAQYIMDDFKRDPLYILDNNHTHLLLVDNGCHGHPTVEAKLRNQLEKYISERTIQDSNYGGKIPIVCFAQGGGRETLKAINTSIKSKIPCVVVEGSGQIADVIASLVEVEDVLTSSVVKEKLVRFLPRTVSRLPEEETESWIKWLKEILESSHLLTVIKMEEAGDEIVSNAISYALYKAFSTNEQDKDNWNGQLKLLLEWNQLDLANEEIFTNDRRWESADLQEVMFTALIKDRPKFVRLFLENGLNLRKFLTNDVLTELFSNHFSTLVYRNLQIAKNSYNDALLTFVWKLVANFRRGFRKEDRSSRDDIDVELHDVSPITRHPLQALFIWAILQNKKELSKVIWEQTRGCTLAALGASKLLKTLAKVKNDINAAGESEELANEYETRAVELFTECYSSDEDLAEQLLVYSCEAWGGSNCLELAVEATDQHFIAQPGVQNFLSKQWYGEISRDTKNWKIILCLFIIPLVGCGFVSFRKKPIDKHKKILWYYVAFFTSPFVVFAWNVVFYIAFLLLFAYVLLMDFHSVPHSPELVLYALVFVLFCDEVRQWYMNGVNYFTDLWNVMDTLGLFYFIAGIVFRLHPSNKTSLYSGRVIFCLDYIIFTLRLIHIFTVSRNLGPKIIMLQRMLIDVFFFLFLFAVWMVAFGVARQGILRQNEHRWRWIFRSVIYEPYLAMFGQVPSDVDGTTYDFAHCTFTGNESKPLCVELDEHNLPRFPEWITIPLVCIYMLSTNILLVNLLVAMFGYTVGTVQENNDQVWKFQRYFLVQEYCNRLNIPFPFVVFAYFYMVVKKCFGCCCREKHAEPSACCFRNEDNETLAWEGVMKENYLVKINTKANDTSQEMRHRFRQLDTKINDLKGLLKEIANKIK

As to `Cc1c(N(Cc2ccc(OC(F)(F)F)cc2)S(=O)(=O)CCNCCC(F)(F)F)sc2ccccc12` [Cpd 13, N-(3-Methylbenzo[b]thiophen-2-yl)-N-(4-trifluoromethoxy-benzyl)-2-(3,3,3-trifluoropropylamino)ethylsulfonamide], the inhibition at 0.2 µM is 72% and the IC50 was 74 nM.

Regarding `CCCCN(CCCC)CCS(=O)(=O)N(Cc1ccc(OC(F)(F)F)cc1)c1sc2ccccc2c1C` [Cpd 15, N-(3-Methylbenzo[b]thiophen-2-yl)-N-(4-trifluoromethoxy-benzyl)-2-(dibutylamino)ethylsulfonamide], the inhibition at 0.2 µM is 100% and the IC50 was 22 nM.

For the compound `Cc1c(N(Cc2ccc(OC(F)(F)F)cc2)S(=O)(=O)CCN(C)CCc2ccccc2)sc2ccccc12` [Cpd 17, N-(3-Methylbenzo[b]thiophen-2-yl)-N-(4-trifluoromethoxy-benzyl)-2-(methyl-2-phenylethylamino)ethylsulfonamide], the inhibition at 0.2 µM stood at 98% and the IC50 came out at 22 nM.

For the compound `Cc1c(N(Cc2ccc(OC(F)(F)F)cc2)S(=O)(=O)CCN2CCCCC2)sc2ccccc12` [Cpd 18, N-(3-Methylbenzo[b]thiophen-2-yl)-N-(4-trifluoromethoxy-benzyl)-2-(piperidin-1-yl)ethylsulfonamide], the inhibition at 0.2 µM is 99% and the IC50 is 26 nM.

`Cc1c(N(Cc2ccc(OC(F)(F)F)cc2)S(=O)(=O)CCN2CCC(C)CC2)sc2ccccc12` [Cpd 19, N-(3-Methylbenzo[b]thiophen-2-yl)-N-(4-trifluoromethoxy-benzyl)-2-(4-methylpiperidin-1-yl)ethylsulfonamide]: the inhibition at 0.2 µM turned out to be 99% and the IC50 amounted to 34 nM.

Consider `Cc1c(N(Cc2ccc(OC(F)(F)F)cc2)S(=O)(=O)CCN2CCC(O)CC2)sc2ccccc12` [Cpd 20, N-(3-Methylbenzo[b]thiophen-2-yl)-N-(4-trifluoromethoxy-benzyl)-2-(4-hydroxypiperidin-1-yl)ethylsulfonamide], for which the inhibition at 0.2 µM was 99% and the IC50 is 25 nM.

On to `Cc1c(N(Cc2ccc(OC(F)(F)F)cc2)S(=O)(=O)CCN2CC(C)CC(C)C2)sc2ccccc12` (centres unmarked) [Cpd 21, N-(3-Methylbenzo[b]thiophen-2-yl)-N-(4-trifluoromethoxy-benzyl)-2-(3,5-dimethylpiperidin-1-yl)ethylsulfonamide], for which the inhibition at 0.2 µM is 100% and the IC50 is 52 nM.

Take `Cc1c(N(Cc2ccc(OC(F)(F)F)cc2)S(=O)(=O)CCN2[C@H](C)CCC[C@@H]2C)sc2ccccc12` [Cpd 22, N-(3-Methylbenzo[b]thiophen-2-yl)-N-(4-trifluoromethoxy-benzyl)-2-(cis-2,6-dimethylpiperidin-1-yl)ethylsulfonamide]: the inhibition at 0.2 µM worked out at 99% and the IC50 is 13 nM.

As for `Cc1c(N(Cc2ccc(OC(F)(F)F)cc2)S(=O)(=O)CCN2CCC(CO)CC2)sc2ccccc12` [Cpd 23, N-(3-Methylbenzo[b]thiophen-2-yl)-N-(4-trifluoromethoxy-benzyl)-2-(4-hydroxymethylpiperidin-1-yl)ethylsulfonamide], the inhibition at 0.2 µM was 97% and the IC50 was 44 nM.

For `Cc1c(N(Cc2ccc(OC(F)(F)F)cc2)S(=O)(=O)CCN2CCCC(C(F)(F)F)C2)sc2ccccc12` (centres unmarked) [Cpd 24, N-(3-Methylbenzo[b]thiophen-2-yl)-N-(4-trifluoromethoxy-benzyl)-2-(3-trifluoromethylpiperidin-1-yl)ethylsulfonamide], the inhibition at 0.2 µM was found to be 99% and the half-maximal inhibitory concentration (IC50) was determined as 27 nM.

As for `Cc1c(N(Cc2ccc(OC(F)(F)F)cc2)S(=O)(=O)CCN2CCNCC2)sc2ccccc12` [Cpd 26, N-(3-Methylbenzo[b]thiophen-2-yl)-N-(4-trifluoromethoxy-benzyl)-2-(piperazin-1-yl)ethylsulfonamide], the inhibition at 0.2 µM stood at 23%.

Turning to `Cc1c(N(Cc2ccc(OC(F)(F)F)cc2)S(=O)(=O)CCN2CCNC(=O)C2)sc2ccccc12` [Cpd 27, N-(3-Methylbenzo[b]thiophen-2-yl)-N-(4-trifluoromethoxy-benzyl)-2-(3-oxopiperazin-1-yl)ethylsulfonamide], the inhibition at 0.2 µM worked out at 101% and the half-inhibitory concentration (IC50) came to 20 nM.

Take `Cc1c(N(Cc2ccc(OC(F)(F)F)cc2)S(=O)(=O)CCN2CCN(C)CC2)sc2ccccc12` [Cpd 28, N-(3-Methylbenzo[b]thiophen-2-yl)-N-(4-trifluoromethoxy-benzyl)-2-(4-methylpiperazin-1-yl)ethylsulfonamide]: the inhibition at 0.2 µM came out at 25%.

As for `CC(=O)N1CCN(CCS(=O)(=O)N(Cc2ccc(OC(F)(F)F)cc2)c2sc3ccccc3c2C)CC1` [Cpd 29, N-(3-Methylbenzo[b]thiophen-2-yl)-N-(4-trifluoromethoxy-benzyl)-2-(4-acetylpiperazin-1-yl)ethylsulfonamide], the inhibition at 0.2 µM was 101% and the IC50 stood at 12 nM.

As for `Cc1c(N(Cc2ccc(OC(F)(F)F)cc2)S(=O)(=O)CCN2CCN(c3ccccc3)CC2)sc2ccccc12` [Cpd 30, N-(3-Methylbenzo[b]thiophen-2-yl)-N-(4-trifluoromethoxy-benzyl)-2-(4-phenylpiperazin-1-yl)ethylsulfonamide], the inhibition at 0.2 µM came out at 96% and the IC50 amounted to 33 nM.

Consider `Cc1c(N(Cc2ccc(OC(F)(F)F)cc2)S(=O)(=O)CCN2CCNC(=O)CC2)sc2ccccc12` [Cpd 31, N-(3-Methylbenzo[b]thiophen-2-yl)-N-(4-trifluoromethoxy-benzyl)-2-(5-oxohomopiperazin-1-yl)ethylsulfonamide], for which the inhibition at 0.2 µM was 99% and the IC50 came out at 27 nM.

`Cc1c(N(Cc2ccc(OC(F)(F)F)cc2)S(=O)(=O)CCN2CCOCC2)sc2ccccc12` [Cpd 32, N-(3-Methylbenzo[b]thiophen-2-yl)-N-(4-trifluoromethoxy-benzyl)-2-(morpholin-4-yl)ethylsulfonamide]: the inhibition at 0.2 µM was found to be 99% and the 50% inhibitory concentration (IC50) worked out at 12 nM.

Regarding `Cc1c(N(Cc2ccc(OC(F)(F)F)cc2)S(=O)(=O)CCN2C[C@@H](C)O[C@@H](C)C2)sc2ccccc12` [Cpd 33, N-(3-Methylbenzo[b]thiophen-2-yl)-N-(4-trifluoromethoxy-benzyl)-2-(cis-2,6-dimethylmorpholin-4-yl)ethylsulfonamide], the inhibition at 0.2 µM stood at 100% and the 50% inhibitory concentration (IC50) was 24 nM.

For the compound `Cc1c(N(Cc2ccc(OC(F)(F)F)cc2)S(=O)(=O)CCN2CCSCC2)sc2ccccc12` [Cpd 34, N-(3-Methylbenzo[b]thiophen-2-yl)-N-(4-trifluoromethoxy-benzyl)-2-(thiomorpholin-4-yl)ethylsulfonamide], the inhibition at 0.2 µM is 100% and the IC50 is 7 nM.

As to `Cc1c(N(Cc2ccc(OC(F)(F)F)cc2)S(=O)(=O)CCN2CCS(=O)(=O)CC2)sc2ccccc12` [Cpd 35, N-(3-Methylbenzo[b]thiophen-2-yl)-N-(4-trifluoromethoxy-benzyl)-2-(1,1-dioxothiomorpholin-4-yl)ethylsulfonamide], the inhibition at 0.2 µM was 97% and the IC50 is 30 nM.

As to `Cc1c(N(Cc2ccc(OC(F)(F)F)cc2)S(=O)(=O)CCN2CCCC2)sc2ccccc12` [Cpd 36, N-(3-Methylbenzo[b]thiophen-2-yl)-N-(4-trifluoromethoxy-benzyl)-2-(pyrrolidin-1-yl)ethylsulfonamide], the inhibition at 0.2 µM turned out to be 94% and the IC50 amounted to 56 nM.

For the compound `Cc1c(N(Cc2ccc(OC(F)(F)F)cc2)S(=O)(=O)CCN2CCCC2C)sc2ccccc12` (centres unmarked) [Cpd 37, N-(3-Methylbenzo[b]thiophen-2-yl)-N-(4-trifluoromethoxy-benzyl)-2-(2-methylpyrrolidin-1-yl)ethylsulfonamide], the inhibition at 0.2 µM came out at 100% and the IC50 is 20 nM.

As to `Cc1c(N(Cc2ccc(OC(F)(F)F)cc2)S(=O)(=O)CCN2CCC(O)C2)sc2ccccc12` (centres unmarked) [Cpd 38, N-(3-Methylbenzo[b]thiophen-2-yl)-N-(4-trifluoromethoxy-benzyl)-2-(3-hydroxypyrrolidin-1-yl)ethylsulfonamide], the inhibition at 0.2 µM came out at 99% and the IC50 turned out to be 30 nM.

Turning to `Cc1c(N(Cc2ccc(OC(F)(F)F)cc2)S(=O)(=O)CCN2CCC2)sc2ccccc12` [Cpd 39, N-(3-Methylbenzo[b]thiophen-2-yl)-N-(4-trifluoromethoxy-benzyl)-2-(azetidin-1-yl)ethylsulfonamide], the inhibition at 0.2 µM was 80% and the IC50 was 113 nM.

For `Cc1c(N(Cc2ccc(OC(F)(F)F)cc2)S(=O)(=O)CCN2CCc3ccccc3C2)sc2ccccc12` [Cpd 40, N-(3-Methylbenzo[b]thiophen-2-yl)-N-(4-trifluoromethoxy-benzyl)-2-(1,2,3,4-tetrahydro-isoquinolin-2-yl)ethylsulfonamide], the inhibition at 0.2 µM worked out at 100% and the IC50 was 29 nM.

As to `CCOC(=O)C1CCN(CCS(=O)(=O)N(Cc2ccc(OC(F)(F)F)cc2)c2sc3ccccc3c2C)CC1` [Cpd 41, N-(3-Methylbenzo[b]thiophen-2-yl)-N-(4-trifluoromethoxy-benzyl)-2-(4-carboethoxypiperidin-1-yl)ethylsulfonamide], the inhibition at 0.2 µM was 99% and the IC50 was found to be 16 nM.

For orientation: inhibition means the drop in the measured response relative to a control, in per cent. In general, IC50 refers to the concentration that inhibits the measured activity by half.
